Structures can show the parent of a compound that is named as a salt.
How the values were obtained:
B16F10 = assay: CellTiter-Glo cell viability assay (example 57); assay type: cell-based, human; details: Mus musculus, B16-F10; B16F10 (Melanoma); Cell Titer-Glo; 72 h
[1] = tested on: patient derived acute myeloid leukemia (AML) cell lines; assay: Cell growth inhibition assay, patient derived AML cells; assay type: cell-based, human; details: Homo sapiens, 48 h
Description: The patient derived acute myeloid leukemia (AML) cells were obtained after written informed consent under the Institut Paoli Calmette (IPC) institutional review board approval and under the strict compliance of the Helsinki declaration on medical research involving human subjects. […] Each compound was added at different concentrations (combinations of six concentrations) to each well, and cell cultures were incubated for 48 h. Vehicle (H2O) was used as a control, and all compounds were tested in a constant percentage of vehicle. Cell outgrowth was measured using the CellTiter-Glo luminescent cell viability assay as described by the manufacturer (Promega, Ref G7571 Madison, Wis., USA) using a Centro (Berthold, France) plate reader. In each experiment, each point represents the average of triplicates in cell culture. The experimental data are analyzed using a computer program, Graphpad Prism (GraphPad Software, Inc.

SK-MEL-5 = assay: EC50 determination in cancer cell lines; assay type: cell-based; details: Homo sapiens, 72 h
Description: (§1) Compounds were added at different concentrations to each well, and cell cultures were incubated for 72 h. Vehicle (DMSO or H2O) was used as a control, and all compounds were tested in a constant percentage of vehicle. Cell outgrowth was measured using for adherent cells CellTiter […] Aqueous One Solution Cell Proliferation Assay (Promega) and for cell suspension, Sulforhodamine B colorimetric assay as described in Vichai et al. (Vichai, V. and Kirtikara, K. Nat. Protoc. 2006 (1) 1112-1116). Absorbance was measured using an Infinite F200 Pro or Sunrise TECAN plate reader.
(§2) The human melanoma cell line A375, colorectal carcinoma cell line HCT-116, hepatocellular carcinoma cell line HepG2 were cultured in Dulbecco's modified Eagle's medium supplemented with 10% fetal bovine serum and 1% Penicillin-Streptomycin. The human melanoma cell lines SK-MEL-28 and SK-MEL-5 were cultured in Minimum Essential Medium. The colorectal carcinoma cell lines HT-29 and Colo205 were respectively cultured in Mc Coy's and RPMI media. The human leukemia cell lines MV4-11 and KG-1 were cultured in Iscove's Modified Dulbecco's Media. The human leukemia cell line MOLM-14 was cultured in Minimum Essential Medium Alpha Medium supplemented with 10% Fetal Bovine Serum and 1% Penicillin-Streptomycin All culture media were supplemented with 10% fetal bovine serum and 1% Penicillin-Streptomycin except for MV4-11 cell line 20% fetal bovine serum and 1% Penicillin-Streptomycin. All the cell lines were maintained at 37° C. with 5% C02.
(§3) Briefly, adherent cells, A375, HCT-116, HepG2, SK-MEL-28, SK-MEL-5, HT-29 and Colo205 cells were respectively plated at 800, 5,000, 7,000, 2,500, 3,000-5,000, 5,000 or 5,000 cells per well onto 96-well plates in 90 μL of media per well and were allowed to grow overnight before the assay. For MV4-11 and KG-1 cells that grow in suspension, 40,000-60,000 cells were plated onto 96-well plates immediately before the assay. MOLM-14 cell line, that grow in suspension, 30,000 cells were plated onto 96-well plates immediately before the assay.
(§4) The cell growth measure was the same as described in example 51.
(§5) The experimental data are analyzed using a computer program, Graphpad Prism (GraphPad Software, Inc. La Jolla, Calif.) and EC50 values were determined as the dose of compound required to reduce absorbance values to 50% of the signal obtained for vehicle treated cell cultures and were a mean of at least two independent experiments except for EC50 values with (*) where […].

MOLM-14 [2] = assay: EC50 determination in cancer cell lines; assay type: cell-based; details: Homo sapiens, 72 h
Description: as §1, §2, §3, §4, §5

KG-1 = assay: EC50 determination in cancer cell lines; assay type: cell-based; details: Homo sapiens, 72 h
Description: as §1, §2, §3, §4, §5

MV4-11 = assay: EC50 determination in cancer cell lines; assay type: cell-based; details: Homo sapiens, 72 h
Description: as §1, §2, §3, §4, §5

SK-MEL-28 = assay: EC50 determination in cancer cell lines; assay type: cell-based; details: Homo sapiens, 72 h
Description: as §1, §2, §3, §4, §5

A375 = assay: Cell proliferation assay at 10 μM; assay type: cell-based, human; details: Homo sapiens, A-375, 72 h, read-out: Cell viability observed at 10 μM
Description: (§6) The human melanoma cell line A375 and colorectal carcinoma cell line HCT-116 were cultured in Dulbecco's modified Eagle's medium supplemented with 10% fetal bovine serum and 1% Penicillin-Streptomycin. The human leukemia cell line MOLM-14 was cultured in Minimum Essential Medium Alpha Medium supplemented with 10% Fetal Bovine Serum and 1% Penicillin-Streptomycin. All the cell lines were maintained at 37° C. with 5% CO2.
(§7) Briefly, adherent cells, A375 and HCT-116 cells were respectively plated at 800 or 5,000 cells per well onto 96-well plates in 90 μL of media per well and were allowed to grow overnight before the assay.
as §1
(§8) In each experiment, each point represents the average of two replicates in cell culture.
(§9) Results are presented in Table 1 below for concentrations of 10 μM of tested compounds.

[3] = tested on: PBMC Healthy voluntary donor; assay: Cell growth inhibition assay, PBMC of healthy donors; assay type: cell-based, human; details: Homo sapiens, PBMC
Description: Each compound was added at different concentrations (combinations of six concentrations) to each well, and cell cultures were incubated for 48 h. Vehicle (H2O) was used as a control, and all compounds were tested in a constant percentage of vehicle. Cell outgrowth was measured using the CellTiter-Glo luminescent cell viability assay as described by the manufacturer (Promega, Ref G7571 Madison, Wis., USA) using a Centro (Berthold, France) plate reader. In each experiment, each point represents the average of triplicates in cell culture. The experimental data are analyzed using a computer program, Graphpad Prism (GraphPad Software, Inc.

HCT-116 [4] = assay: EC50 determination in cancer cell lines; assay type: cell-based, human; details: Homo sapiens, HCT-116, 72 h
Description: as §1, §2
Briefly, adherent cells, A375, HCT-116, HepG2, SK-MEL-28, SK-MEL-5, HT-29 and Colo205 cells were respectively plated at 800, 5,000, 7,000, 2,500, 3,000-5,000, 5,000 or 5,000 cells per well onto 96-well plates in 90 μL of media per well and were allowed to grow overnight before the assay. For MV4-11 and KG-1 cells that grow in suspension, 40,000-60,000 cells were plated onto 96-well plates immediately before the assay. MOLM-14 cell line, that grow in suspension, 30,000 cells were plated onto 96-well plates immediately before the assay. […]
as §5

A-375 = assay: EC50 determination in cancer cell lines; assay type: cell-based, human; details: Homo sapiens, A-375, 72 h
Description: as §1, §2, §3, §4, §5

MOLM-14 [5] = assay: Cell proliferation assay at 10 μM; assay type: cell-based, human; details: Homo sapiens, MOLM-14, 72 h, read-out: Cell viability observed at 10 μM
Description: as §6
For MOLM-14 cell line, which grows in suspension, 30,000 cells were plated onto 96-well plates immediately before the assay.
as §1, §8, §9

HCT-116 [6] = assay: Cell proliferation assay at 10 μM; assay type: cell-based; details: Homo sapiens, HCT-116, 72 h, read-out: Cell viability observed at 10 μM
Description: as §6, §7, §1, §8, §9

Colo205 = assay: EC50 determination in cancer cell lines; assay type: cell-based; details: Homo sapiens, COLO 205, 72 h, * n>2
Description: as §1, §2, §3, §4, §5

HT-29 = assay: EC50 determination in cancer cell lines; assay type: cell-based; details: Homo sapiens, 72 h, * n>2
Description: as §1, §2, §3, §4, §5

HepG2 = assay: EC50 determination in cancer cell lines; assay type: cell-based, human; details: Homo sapiens, HepG2, 72 h
Description: as §1, §2, §3, §4, §5

Compound	EC50 (SK-MEL-5)	EC50 (MOLM-14 [2])	EC50 (KG-1)	EC50 (MV4-11)	EC50 (SK-MEL-28)	viability at 10 µM (A375)	EC50 (HCT-116 [4])	EC50 (A-375)	viability at 10 µM (MOLM-14 [5])	viability at 10 µM (HCT-116 [6])	EC50 (Colo205)	EC50 (HT-29)	EC50 (HepG2)	other results
COc1cccc2c1C(=O)c1c(O)c3c(c(O)c1C2=O)C[C@@](O)(C(=O)CO)C[C@@H]3O[C@H]1C[C@H](N)[C@H](O)[C@H](C)O1 [Doxorubicine, doxorubicin]	–	–	–	–	–	–	–	–	–	–	–	–	–	EC50 (B16F10): 0.2 µM
CC(C)(C)NC1CCN(c2cc(-c3ccc(Cl)c(Cl)c3)nc3ccccc23)CC1 [XIV-8, 2-(3,4-dichloro-phenyl)-4-(4-N-tert-butylamino-piperidin-1-yl)quinoline dihydrochloride]	6 µM	5 µM	4 µM	4 µM	4 µM	< 20%	5 µM	6 µM	< 20%	< 20%	–	–	–	EC50 ([1]; Patient 3, subtype Tri8): 8 µM; EC50 ([1]; Patient 8, subtype FLT3−): 25 µM; EC50 ([1]; Patient 9, subtype FLT3+): 40 µM; EC50 ([1]; Patient 10, subtype Inv 3): 20 µM; EC50 ([1]; Patient 12, subtype 5 & 7): > 40 µM; EC50 ([1]; Patient 13, subtype MLL): > 40 µM; EC50 ([1]; Patient 16, subtype Inv 3): 17 µM; EC50 ([3]; PBMC Healthy voluntary donor 1): 31 µM; EC50 ([3]; PBMC Healthy voluntary donor 2): 14 µM
Clc1ccc2c(NC3CCN(Cc4ccccc4)CC3)cc(-c3ccccc3)nc2c1 [XXVIII-2, 7-chloro-2-phenyl-4-[(N-benzylpiperidin-4-yl)-amino]quinoline hydrochloride salt]	9 µM	10 µM	10 µM	5 µM	7 µM	< 20%	12 µM	9 µM	< 20%	< 20%	9 µM	13 µM	26 µM	–
Clc1ccc2c(CNC3CCN(Cc4ccccc4)CC3)cc(-c3ccccc3)nc2c1 [XXXIII-2, 7-chloro-2-phenyl-4-[(N-benzyl-piperidin-4-yl)aminomethyl]quinoline hydrochloride salt]	6 µM	9 µM	8 µM	5 µM	6 µM	40 to 60%	13 µM	9 µM	40 to 60%	20 to 40%	9 µM	14 µM	16 µM	–

From patent US10179770B2, “Quinolines derivatives as novel anticancer agents” (GENOSCIENCE PHARMA, priority 2013, dated 2019)
